Measured values as given in patent publication US20180317487A1, “METHOD OF CONTROLLING GROWTH OF ALS-TOLERANT PLANTS” (ROTAM AGROCHEM INTERNATIONAL COMPANY LIMITED, priority 2015, published 2018).

Columns and labels:
[1] = tested on: ALS-tolerant plants; experiment: Review of the spray test data, ALS-tolerant plants together; type: in vivo; conditions: review of the data of Tables 5 and 6
Excerpt: (§1) Seeds of normal wild variety and ALS-resistant variant of each of Stellaria media, Papaver rhoeas, Matricaria chamomilla and Matricaria inodora were sown in trays of peat-based compost placed in a glasshouse to allow germination. At the cotyledon stage, four evenly sized seedlings were transplanted into each of 9 cm diameter plastic pots containing loam soil mixed with 25% by volume horticultural silver sand and further blended with coarse grit in the ratio 3:1. The resulting potting medium was supplemented with Osmacote slow-release fertilizer (16:8:9+Mg) to provide 1.4 g per 0.35 L pot.
(§2) The formulations of each of Examples C1 to C11 and 1 to 16 were applied to the seedlings by spraying. Three replicate pots were used per treatment. Prior to spraying, the plants were watered overhead. To ensure the foliage was dry, water was not applied on the day of spraying, with the last overhead watering being the day before spraying. The herbicide formulations were made up with mains tap water. The laboratory track sprayer was set up with a Lurmark O1E80 Even spray nozzle to deliver 200±20 L/ha using gear 4 and a pressure of […] (30 psi). The application rates of the active ingredients are set out in Table 5 below.
(§3) Following spraying, the plants were returned to the glasshouse and the sprayed pots were arranged in three randomized blocks. The temperature of the glasshouse ranged from 12.2° C. to 16.1° C. by day and 10.9° C. to 13.3° C. at night. The relative humidity ranged from 75% to 101 %.
(§4) Throughout the experiment, the plants were watered to maintain the soil close to the field capacity. Following herbicide treatment, the plants were watered by sub-irrigation using individual plastic dishes for each pot to avoid any risk of cross contamination.
(§5) The visual percentage of control based on a 0-100 linear scale was assessed 21 days after treatment (DAT). The linear scale ranged from 0 (no effect) to 100 (dead plants).
(§6) In Table 6, ‘Obs’ indicates an observed result and ‘Exp’ indicates the result expected from applying the Colby equation, discussed above.

[2] = tested on: wild (non-tolerant) plants; experiment: Review of the spray test data, wild plants together; type: in vivo; conditions: review of the data of Tables 5 and 6
Excerpt: as §1, §2, §3, §4, §5, §6

Structure (SMILES)	damage to / effect on ALS-tolerant plants (in words) [1]	damage to wild (non-tolerant) plants (in words) [2]
COc1cc(OC)nc(NC(=O)NS(=O)(=O)N(C)S(C)(=O)=O)n1 [Amidosulfuron]	little or no effect	significantly damaging
COc1cc(OC)nc(NC(=O)NS(=O)(=O)c2c(C(=O)O)c(Cl)nn2C)n1 [Halosulfuron]	little or no effect	significantly damaging
COc1nc(C)nc(NC(=O)NS(=O)(=O)c2cc(I)ccc2C(=O)O)n1 [Iodosulfuron]	little or no effect	significantly damaging
COc1cc(OC)nc(NC(=O)NS(=O)(=O)c2cc(CNS(C)(=O)=O)ccc2C(=O)O)n1 [Mesosulfuron]	little or no effect	significantly damaging
COc1nc(C)nc(=NC(=O)NS(=O)(=O)c2ccccc2C(=O)O)[nH]1 [Metsulfuron]	little or no effect	significantly damaging
COc1cc(OC)nc(NC(=O)NS(=O)(=O)c2ncccc2C(=O)N(C)C)n1 [Nicosulfuron]	little or no effect	significantly damaging
CCS(=O)(=O)c1cccnc1S(=O)(=O)NC(=O)Nc1nc(OC)cc(OC)n1 [Rimsulfuron]	little or no effect	significantly damaging
CCS(=O)(=O)c1nc2ccccn2c1S(=O)(=O)NC(=O)Nc1nc(OC)cc(OC)n1 [Sulfosulfuron]	little or no effect	significantly damaging
COc1nc(C)nc(NC(=O)NS(=O)(=O)c2ccsc2C(=O)O)n1 [Thifensulfuron]	little or no effect	significantly damaging
COc1nc(C)nc(N(C)C(=O)NS(=O)(=O)c2ccccc2C(=O)O)n1 [Tribenuron]	little or no effect	significantly damaging
CSc1nnc(C(C)(C)C)c(=O)n1N [metribuzin, 4-amino-6-tert-butyl-4,5-dihydro-3-methylthio-1,2,4-triazin-5-one]	caused damage	caused damage
